According to patent US4551455A, “Method of treating high blood pressure using 6-[4-(1-imidazolyl)-phenyl]-5-methyl-3-oxo-tetrahydropyridazines” (A. Nattermann & Cie GmbH, priority 1982, dated 1985):
Read-outs that look alike come from different tables or passages of the source.

Key:
[1] = tested on: collagen-induced thrombocyte aggregation; experiment: inhibition of collagen-induced thrombocyte aggregation in vitro (method of Born, modified); assay type: cell-based, human; conditions: read-out: IC50 (concentration that caused a 50% reduction of the aggregation)
Description: (§1) For investigation of the pharmacodynamic properties, the following methods (1) through (4) were employed.
(3) The inhibition of collagen-induced thrombocyte aggregation in vitro was evaluated. The suppression of collagen-induced thrombocyte aggregation in vitro was carried out on thrombocyte-rich human plasma with the inventive substance 6-[4-(1-imidazolyl)-phenyl]-5-methyl-3-oxo-2,3,4,5-tetrahydropyridazine (A) in parallel with the reference substance acetylsalicyclic acid (D) according to the method of Born (Nature, 194, 927-929 (1962)) in modified form (simultaneous application). The concentration that caused a 50% reduction of the aggregation was defined as IC50 in Table 3 set forth below.

thrombin formation = experiment: reduction of thrombin formation in narcotized rats; assay type: in vivo, rat
Description: as §1
(4) The reduction of thrombin formation in narcotized rats was evaluated. The test of the reduction of thrombin formation by the substances of the present invention 6-[4-(1-imidazolyl)phenyl]-5-methyl-3-oxo-2,3,4,5-tetrahydropyridazine (A) and 6-[4-(2-methyl-1-imidazolyl)-phenyl]-5-methyl-3-oxo-2,3,4,5-[…] (B) in parallel with the reference substance acetylsalicylic acid (D) was carried out by oral administration to narcotized rats.

anaesthetized dogs = experiment: blood pressure-lowering effect on anaesthetized dogs; assay type: in vivo, dog; conditions: for influence on blood pressure (in words): Table 2, anaesthetized dogs; for Pressure, Δ mmHg, diastolic / Pressure, Δ mmHg, systolic: anaesthetized dogs, 0.316 mg/kg intraduodenally, change in pressure
Description: as §1
(2) The blood pressure-lowering effect on anaesthetized dogs was evaluated. The influence on the systolic and diastolic blood preessure of the subject compounds 6-[4-(1-imidazolyl)phenyl]-5-methyl-3-oxo-2,3,4,5-tetrahydropyridazine (A) and 6-[4-(2-methyl-1-imidazolyl)-phenyl]-5-methyl-3-oxo-2,3,4,5-tetrahydropyridazine (B) were studied on the anaesthetized dogs by intraduodenal administration.

normotensive Wistar rats = experiment: blood pressure-lowering effect on narcotized rats; assay type: in vivo, rat (male adult normotensive Wistar); conditions: for Average arterial pressure / Heart frequency: rats, 3.16 mg/kg orally, n = 5, narcotized 90 min after application; for Average arterial pressure: control 112.8 ± 4.8; for Heart frequency: control 307 ± 11
Description: as §1
(1) The blood pressure-lowering effect on narcotized rats was evaluated. For testing of the blood pressure-lowering effect, the invention substance 6-[4-(imidazolyl)phenyl]-5-methyl-3-oxo-2,3,4,5-tetrahydropyridazine (A) was administered in parallel with the reference substance 1-hydrazinophthalazine (hydralazine) (C) orally to groups of 5 male adult normotensive Wistar rats. Ninety minutes after application, the animal was narcotized with 75 mg/kg of intraperitoneal phenobarbital, and the trachea and the carotid artery were cannulated.

Structure (SMILES) | IC50 ([1]; Homo sapiens) [nM] | Reduction in % (thrombin formation) (thrombin formation; 100 mg/kg orally) [%] | influence on blood pressure (in words) (anaesthetized dogs) | Pressure, Δ mmHg, diastolic (anaesthetized dogs) [mmHg] | Pressure, Δ mmHg, systolic (anaesthetized dogs) [mmHg] | IC50 ([1]; thrombocyte-rich human plasma, collagen-induced, simultaneous application) [nM] | blood pressure-lowering effect on the rats (in words) (normotensive Wistar rats; Table 1, in comparison with hydralazine C) | Average arterial pressure (normotensive Wistar rats) [mmHg] | Heart frequency (normotensive Wistar rats) [beats/min.] | Reduction in % (thrombin formation) (thrombin formation; 10 mg/kg orally) [%]
CC(=O)Oc1ccccc1C(=O)O [Substance D, acetylsalicylic acid, reference compound] | > 300000 | -45 | – | – | – | – | – | – | – | –
CC1CC(=O)NN=C1c1ccc(-n2ccnc2)cc1 (stereo not shown) [Substance A, 6-[4-(1-imidazolyl)phenyl]-5-methyl-3-oxo-2,3,4,5-tetrahydropyridazine] | – | – | strong influence on blood pressure | -51.42 | -51.77 | 2400 | powerful blood pressure-lowering effect | 54.8 ± 8.9 | 415 ± 17 | -52
NNc1nncc2ccccc12 [Substance C, 1-hydrazinophthalazine, reference compound] | – | – | – | – | – | – | – | 82.0 ± 6 | 356 ± 8 | –
Cc1nccn1-c1ccc(C2=NNC(=O)CC2C)cc1 (stereo not shown) [Substance B, 6-[4-(2-methyl-1-imidazolyl)-phenyl]-5-methyl-3-oxo-2,3,4,5-tetrahydropyridazine] | – | – | strong influence on blood pressure | -43.80 | -48.18 | – | – | – | – | -48
